# Assay results from patent US11834453B2, “Substituted pyrimido[5,4-d]pyrimidines as HER2 inhibitors” (Array BioPharma Inc., priority 2020, dated 2023).
# pIC50: −log10 of the molar value. Where a name gives a salt, the structure may show the parent alone. Read-outs that look alike come from different tables or passages of the source.
# Legend:
# [1] = target: ErbB2 insYVMA (HER2-YVMA, SEQ ID NO: 2) (Homo sapiens, UniProt P04626, INS775YVMA/P1170A); experiment: biochemical; details: ErbB2 insYVMA enzyme assay; for pIC50: read-out: Assay 1 IC50; for IC50: Assay 1 IC50 (nM)
# Sequence of ErbB2 insYVMA (HER2-YVMA, SEQ ID NO: 2) (P04626 with tags, fused parts or gaps INS775YVMA/P1170A limits assumed): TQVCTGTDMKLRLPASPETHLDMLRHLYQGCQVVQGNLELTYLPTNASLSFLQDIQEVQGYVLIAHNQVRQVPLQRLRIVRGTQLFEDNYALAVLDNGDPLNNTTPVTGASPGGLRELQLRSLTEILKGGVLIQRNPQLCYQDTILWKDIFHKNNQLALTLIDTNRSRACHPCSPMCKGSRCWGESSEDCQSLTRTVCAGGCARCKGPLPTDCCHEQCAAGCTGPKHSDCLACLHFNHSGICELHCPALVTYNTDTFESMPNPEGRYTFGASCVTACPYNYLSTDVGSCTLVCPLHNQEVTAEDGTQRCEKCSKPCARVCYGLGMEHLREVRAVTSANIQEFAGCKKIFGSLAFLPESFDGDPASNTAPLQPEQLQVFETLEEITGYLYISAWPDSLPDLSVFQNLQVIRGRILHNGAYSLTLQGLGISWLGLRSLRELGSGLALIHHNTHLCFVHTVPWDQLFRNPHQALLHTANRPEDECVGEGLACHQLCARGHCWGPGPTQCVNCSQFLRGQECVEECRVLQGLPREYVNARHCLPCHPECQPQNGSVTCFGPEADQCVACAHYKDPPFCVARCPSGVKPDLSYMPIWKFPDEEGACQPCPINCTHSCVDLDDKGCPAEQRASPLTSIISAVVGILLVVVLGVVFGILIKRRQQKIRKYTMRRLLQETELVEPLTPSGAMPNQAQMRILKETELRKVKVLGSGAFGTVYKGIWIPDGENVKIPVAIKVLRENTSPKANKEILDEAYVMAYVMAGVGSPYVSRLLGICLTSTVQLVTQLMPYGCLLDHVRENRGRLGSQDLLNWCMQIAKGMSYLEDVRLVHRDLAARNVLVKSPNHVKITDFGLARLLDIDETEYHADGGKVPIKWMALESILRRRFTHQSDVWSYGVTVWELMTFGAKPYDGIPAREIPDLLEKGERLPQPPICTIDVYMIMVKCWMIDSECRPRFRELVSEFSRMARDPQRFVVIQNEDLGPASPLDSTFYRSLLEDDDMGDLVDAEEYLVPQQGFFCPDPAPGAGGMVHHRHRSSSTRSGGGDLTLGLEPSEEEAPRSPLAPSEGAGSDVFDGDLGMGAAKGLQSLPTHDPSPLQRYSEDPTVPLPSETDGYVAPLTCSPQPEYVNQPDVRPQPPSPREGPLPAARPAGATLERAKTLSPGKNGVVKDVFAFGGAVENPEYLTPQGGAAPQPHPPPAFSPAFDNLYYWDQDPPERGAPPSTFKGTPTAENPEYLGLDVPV
# ErbB2 WT = ErbB2 WT (Homo sapiens (Human), UniProt P04626); experiment: ErbB enzyme assay (CisBio HTRF KinEASE-TK), Assay 2; type: biochemical
# In short: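 ErbB2 phosphorylates 250 nM biotin-TK substrate at 1 mM ATP in 25 mM HEPES pH 7.4, 10 mM MgCl2, 0.01% Triton X-100 and 2% DMSO, for 30 min at 22 °C. Product is detected by HTRF with Sa-XL665 and TK-Ab-Cryptate. Percent of control is set by DMSO-only wells and pre-quenched wells.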
# EGFR = EGFR (Homo sapiens (Human), UniProt P00533); experiment: ErbB enzyme assay (CisBio HTRF KinEASE-TK), Assay 3; type: biochemical
# Sequence of EGFR (P00533 25-1210): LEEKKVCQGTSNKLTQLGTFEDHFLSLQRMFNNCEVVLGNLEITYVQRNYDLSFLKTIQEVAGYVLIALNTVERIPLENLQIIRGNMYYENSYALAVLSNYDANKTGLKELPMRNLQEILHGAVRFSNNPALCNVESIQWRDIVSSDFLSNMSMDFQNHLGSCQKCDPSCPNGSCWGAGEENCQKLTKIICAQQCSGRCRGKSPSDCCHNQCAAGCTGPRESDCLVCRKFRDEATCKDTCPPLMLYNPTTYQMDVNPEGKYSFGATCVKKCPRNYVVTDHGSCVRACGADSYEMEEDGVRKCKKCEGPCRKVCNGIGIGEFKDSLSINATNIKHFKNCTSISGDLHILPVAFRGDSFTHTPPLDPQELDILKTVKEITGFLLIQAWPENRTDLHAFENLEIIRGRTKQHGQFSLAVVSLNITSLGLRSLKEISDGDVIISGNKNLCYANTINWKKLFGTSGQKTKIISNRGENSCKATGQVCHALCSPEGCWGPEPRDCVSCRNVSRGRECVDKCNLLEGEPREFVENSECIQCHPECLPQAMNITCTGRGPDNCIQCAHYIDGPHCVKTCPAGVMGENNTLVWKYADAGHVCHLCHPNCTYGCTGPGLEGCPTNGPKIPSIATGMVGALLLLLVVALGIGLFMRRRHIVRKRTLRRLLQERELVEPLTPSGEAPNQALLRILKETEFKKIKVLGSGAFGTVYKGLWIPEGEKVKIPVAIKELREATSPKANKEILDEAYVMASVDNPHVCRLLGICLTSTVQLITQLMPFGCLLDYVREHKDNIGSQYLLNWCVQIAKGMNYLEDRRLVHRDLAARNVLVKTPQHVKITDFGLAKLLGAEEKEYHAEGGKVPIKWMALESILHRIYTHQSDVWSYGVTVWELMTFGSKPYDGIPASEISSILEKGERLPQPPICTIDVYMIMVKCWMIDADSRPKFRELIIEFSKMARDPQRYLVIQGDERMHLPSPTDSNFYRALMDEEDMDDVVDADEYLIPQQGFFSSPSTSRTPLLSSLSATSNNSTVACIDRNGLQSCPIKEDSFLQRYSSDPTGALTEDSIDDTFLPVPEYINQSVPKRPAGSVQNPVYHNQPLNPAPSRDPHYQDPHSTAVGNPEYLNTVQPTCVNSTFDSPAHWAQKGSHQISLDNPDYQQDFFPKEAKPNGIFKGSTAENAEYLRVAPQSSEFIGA
# In short: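 Kinase incubated 30 min at 22 °C with 250 nM biotinylated TK substrate, 1 mM ATP and serially diluted compound in 25 mM HEPES pH 7.4, 10 mM MgCl2, 0.01% Triton X-100, 2% DMSO. Phosphorylation read by HTRF (Sa-XL665/TK-Ab-Cryptate); IC50 from 4-parameter fit of percent of control.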
# [2] = target: ErbB2 with Exon 20 YVMA insertion (HER2-YVMA) (Homo sapiens (Human), UniProt P04626, INS775YVMA); experiment: Cellular phosphorylation assay, constitutive ErbB2 phosphorylation (Y1196) in engineered NIH 3T3 cells, Assay 4; type: cell-based
# Sequence of ErbB2 with Exon 20 YVMA insertion (HER2-YVMA) (P04626 other isoform, or with tags, fused parts or gaps ins YVMA behind 775): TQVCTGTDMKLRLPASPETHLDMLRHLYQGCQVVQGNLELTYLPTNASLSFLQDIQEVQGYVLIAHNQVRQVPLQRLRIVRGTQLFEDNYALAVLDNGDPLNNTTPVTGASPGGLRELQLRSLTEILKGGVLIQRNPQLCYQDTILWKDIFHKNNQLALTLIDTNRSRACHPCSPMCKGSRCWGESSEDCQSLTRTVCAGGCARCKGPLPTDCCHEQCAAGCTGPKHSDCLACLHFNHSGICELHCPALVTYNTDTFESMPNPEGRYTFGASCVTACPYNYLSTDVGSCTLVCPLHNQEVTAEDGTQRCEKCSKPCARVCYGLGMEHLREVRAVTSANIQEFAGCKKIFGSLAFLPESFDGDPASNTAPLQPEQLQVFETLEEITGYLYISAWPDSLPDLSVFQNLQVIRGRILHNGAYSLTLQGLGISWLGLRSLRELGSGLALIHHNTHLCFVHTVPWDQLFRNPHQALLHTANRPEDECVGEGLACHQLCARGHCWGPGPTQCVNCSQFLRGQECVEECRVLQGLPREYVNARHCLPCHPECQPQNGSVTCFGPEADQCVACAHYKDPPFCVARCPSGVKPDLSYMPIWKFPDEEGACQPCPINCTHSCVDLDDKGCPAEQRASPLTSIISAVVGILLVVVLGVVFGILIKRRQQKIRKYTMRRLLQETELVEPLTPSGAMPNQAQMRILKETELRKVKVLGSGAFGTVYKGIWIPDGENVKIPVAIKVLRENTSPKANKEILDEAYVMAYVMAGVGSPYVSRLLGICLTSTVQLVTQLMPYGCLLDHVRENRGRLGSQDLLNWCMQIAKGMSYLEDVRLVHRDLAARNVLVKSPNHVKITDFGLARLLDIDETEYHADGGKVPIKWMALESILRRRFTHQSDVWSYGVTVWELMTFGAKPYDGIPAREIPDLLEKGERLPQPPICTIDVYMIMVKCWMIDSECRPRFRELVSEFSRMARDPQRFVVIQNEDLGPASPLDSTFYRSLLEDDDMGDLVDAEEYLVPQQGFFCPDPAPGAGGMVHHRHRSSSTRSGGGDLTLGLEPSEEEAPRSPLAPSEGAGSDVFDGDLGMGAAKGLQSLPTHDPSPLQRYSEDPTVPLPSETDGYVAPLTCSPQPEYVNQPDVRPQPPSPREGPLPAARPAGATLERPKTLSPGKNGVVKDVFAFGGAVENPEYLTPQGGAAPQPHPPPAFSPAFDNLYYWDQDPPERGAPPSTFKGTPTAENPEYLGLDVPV
# In short: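 Engineered NIH 3T3 cells expressing HER2-YVMA treated with compounds 1 h at 37 °C, then formaldehyde-fixed and methanol-permeabilized. pErbB2 Y1196 detected by in-cell infrared immunofluorescence, normalized to GAPDH. IC50 from the normalized curves.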
# EGFR wild type (EGFR WT) = EGFR wild type (EGFR WT) (Homo sapiens (Human), UniProt P00533); experiment: Cellular phosphorylation assay, EGF-stimulated EGFR phosphorylation in engineered NIH 3T3 cells, Phospho-EGFR DuoSet IC ELISA, Assay 5; type: cell-based
# Sequence of EGFR wild type (EGFR WT) (P00533 25-1210): as the sequence (P00533 25-1210) above
# In short: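 NIH 3T3 cells expressing EGFR WT (20,000/well, attached overnight) were exposed to serially diluted compound for 1 h at 37 °C, then stimulated with 100 ng/ml rEGF for 10 min. Phospho-EGFR in lysates measured by sandwich ELISA optical density; IC50 from curves.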
SMILES,pIC50 [1],pIC50 (ErbB2 WT),pIC50 (EGFR),pIC50 [2],pIC50 (EGFR wild type (EGFR WT)),IC50 [1] [nM]
"C[C@@H]1COCCN1c1ncc2ncnc(Nc3ccc(Oc4ccc5c(c4)ncn5C)c(Cl)c3)c2n1 [Example 144, (R)—N-(3-chloro-4-((1-methyl-1H-benzo[d]imidazol-5-yl)oxy)phenyl)-6-(3-methylmorpholino)pyrimido[5,4-d]pyrimidin-4-amine]",7.23,7.11,5.16,7.42,≤ 5.30,–
"Cn1cnc2cc(Oc3ccc(Nc4ncnc5cnc(N6CC[C@H](C#N)C6)nc45)cc3Cl)ccc21 [Example 152, (S)-1-(8-((3-chloro-4-((1-methyl-1H-benzo[d]imidazol-5-yl)oxy)phenyl)amino)pyrimido[5,4-d]pyrimidin-2-yl)pyrrolidine-3-carbonitrile 2,2,2-trifluoroacetate]",–,7.10,≤ 5.00,7.50,≤ 5.30,36.7
"Cc1cc(Nc2ncnc3cnc(N4CCCO4)nc23)ccc1Oc1cc(F)c2c(c1)ncn2C [Example 155, N-(4-((7-fluoro-1-methyl-1H-benzo[d]imidazol-5-yl)oxy)-3-methylphenyl)-6-(isoxazolidin-2-yl)pyrimido[5,4-d]pyrimidin-4-amine]",7.65,7.28,5.37,8.26,≤ 5.30,–
"Cc1cc(Nc2ncnc3cnc(N4CC(O)(C(F)F)C4)nc23)ccc1Oc1ccc2c(c1)ncn2C [Example 160, 3-(difluoromethyl)-1-(8-((3-methyl-4-((1-methyl-1H-benzo[d]imidazol-5-yl)oxy)phenyl)amino)pyrimido[5,4-d]pyrimidin-2-yl)azetidin-3-ol hydrochloride]",–,7.17,5.17,7.37,≤ 5.30,20.3
"Cc1cc(Nc2ncnc3cnc(N(C)CC(O)C(F)(F)F)nc23)ccc1Oc1ccc2c(c1)ncn2C (stereo not drawn) [Example 188, 1,1,1-trifluoro-3-(methyl(8-((3-methyl-4-((1-methyl-1H-benzo[d]imidazol-5-yl)oxy)phenyl)amino)pyrimido[5,4-d]pyrimidin-2-yl)amino)propan-2-ol]",7.56,7.57,≤ 5.00,7.69,≤ 5.30,–
"Cc1cc(Nc2ncnc3cnc(N4CC[C@@H](CC#N)C4)nc23)ccc1Oc1ccc2c(c1)ncn2C [Example 201, (S)-2-(1-(8-((3-methyl-4-((1-methyl-1H-benzo[d]imidazol-5-yl)oxy)phenyl)amino)pyrimido[5,4-d]pyrimidin-2-yl)pyrrolidin-3-yl)acetonitrile]",7.56,7.05,≤ 5.00,8.00,≤ 5.30,–
"Cc1cc(Nc2ncnc3cnc(N(C)CC(C)(C)C#N)nc23)ccc1Oc1ccc2c(c1)ncn2C [Example 205, 2,2-dimethyl-3-(methyl(8-((3-methyl-4-((1-methyl-1H-benzo[d]imidazol-5-yl)oxy)phenyl)amino)pyrimido[5,4-d]pyrimidin-2-yl)amino)propanenitrile]",7.53,6.98,≤ 5.00,7.59,≤ 5.30,–
"Cc1cc(Nc2ncnc3cnc(N4CCC(C)(O)CC4)nc23)c(F)cc1Oc1ccc2c(c1)ncn2C [Example 215, 1-(8-((2-fluoro-5-methyl-4-((1-methyl-1H-benzo[d]imidazol-5-yl)oxy)phenyl)amino)pyrimido[5,4-d]pyrimidin-2-yl)-4-methylpiperidin-4-ol]",7.54,6.92,≤ 5.00,7.42,≤ 5.30,–
"CON(C)CCNc1ncc2ncnc(Nc3ccc(Oc4ccc5c(c4)ncn5C)c(C)c3)c2n1 [Example 219, N2-(2-(methoxy(methyl)amino)ethyl)-N8-(3-methyl-4-((1-methyl-1H-benzo[d]imidazol-5-yl)oxy)phenyl)pyrimido[5,4-d]pyrimidine-2,8-diamine]",7.83,7.56,5.68,8.21,≤ 5.30,–
